Test results reported in ChEMBL document CHEMBL3045364, “Synthesis, structure, and estrogenic activity of 2- and 3-substituted 2,3-dihydro-4H-1-benzopyran-4-ones” (2013).
Calls of active or inactive are those of the source. The calls are words filed in the database; no cut-off is given here.

System: MVLN
Assay: Estrogenic activity in Homo sapiens (human) MVLN cells assessed as induction of ERE-dependent transcription at 10 uM after 24 hr by luciferase reporter gene assay
Type: functional, cell-based

| SMILES | Activity |
| --- | --- |
| COc1cccc(/C=C2\COc3ccccc3C2=O)c1 | Active |
| O=C1/C(=C/c2ccc(O)cc2)COc2ccccc21 | Active |
| O=C1CC2(CCCCC2)Oc2cc(O)ccc21 | Active |

System: MVLN
Assay: Estrogenic activity in Homo sapiens (human) MVLN cells assessed as induction of ERE-dependent transcription at 1 uM after 24 hr by luciferase reporter gene assay
Type: functional

| SMILES | Activity |
| --- | --- |
| COc1cccc(/C=C2\COc3ccccc3C2=O)c1 | 243% |
| COc1ccc2c(c1)OC1(CCCCC1)CC2=O | inactive |
| CN(C)c1ccc(/C=C2\COc3ccccc3C2=O)cc1 | 145% |
| O=C1/C(=C/c2ccc(O)cc2)COc2ccccc21 | 236% |
| COc1cc(OC)c(/C=C2\COc3ccccc3C2=O)c(OC)c1 | 134% |
| O=C1CC2(CCCCC2)Oc2cc(O)ccc21 | 279% |
| O=C1/C(=C/c2ccccc2)COc2ccccc21 | inactive |

System: MVLN
Assay: Estrogenic activity in Homo sapiens (human) MVLN cells assessed as induction of ERE-dependent transcription at 10 uM after 24 hr by luciferase reporter gene assay in presence of 0.1 uM antiestrogen, fulvestrant
Type: functional, cell-based

| SMILES | Activity |
| --- | --- |
| COc1cccc(/C=C2\COc3ccccc3C2=O)c1 | inactive |
| O=C1/C(=C/c2ccc(O)cc2)COc2ccccc21 | inactive |
| O=C1CC2(CCCCC2)Oc2cc(O)ccc21 | inactive |

Target: T1, Estrogen receptor (Homo sapiens) (UniProt P03372)
T1 sequence (whole entry): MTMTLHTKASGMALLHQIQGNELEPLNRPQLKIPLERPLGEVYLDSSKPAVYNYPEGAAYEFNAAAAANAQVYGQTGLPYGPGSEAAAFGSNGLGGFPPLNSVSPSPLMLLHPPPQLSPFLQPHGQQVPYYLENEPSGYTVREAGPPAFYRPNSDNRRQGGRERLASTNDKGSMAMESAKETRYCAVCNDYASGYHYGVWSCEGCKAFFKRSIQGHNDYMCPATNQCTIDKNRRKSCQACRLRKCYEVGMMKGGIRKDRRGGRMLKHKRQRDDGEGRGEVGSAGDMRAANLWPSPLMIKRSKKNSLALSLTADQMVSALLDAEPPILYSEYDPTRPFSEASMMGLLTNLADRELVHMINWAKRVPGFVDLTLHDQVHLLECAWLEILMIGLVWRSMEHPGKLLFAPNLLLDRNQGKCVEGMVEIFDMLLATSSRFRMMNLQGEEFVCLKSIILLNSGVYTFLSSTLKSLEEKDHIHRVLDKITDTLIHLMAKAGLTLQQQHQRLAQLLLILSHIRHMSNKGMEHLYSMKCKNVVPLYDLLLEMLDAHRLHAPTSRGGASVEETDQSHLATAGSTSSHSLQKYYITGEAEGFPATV
Assay: Displacement of [3H]E2 from Homo sapiens (human) recombinant ER-alpha by HAP binding assay

| inhibition | SMILES |
| --- | --- |
| inactive | COc1cccc(/C=C2\COc3ccccc3C2=O)c1 |
| inactive | COc1ccc2c(c1)OC1(CCCCC1)CC2=O |
| inactive | COc1ccc2c(c1)OC1(CCC(C(C)(C)C)CC1)CC2=O (stereo not drawn) |
| inactive | CN(C)c1ccc(/C=C2\COc3ccccc3C2=O)cc1 |
| inactive | COc1cc(OC)c(/C=C2\COc3ccccc3C2=O)c(OC)c1 |
| inactive | Cc1ccc(/C=C2\COc3ccccc3C2=O)cc1 |

The next lines start with the molecule.

| SMILES | inhibition |
| --- | --- |
| COc1ccc2c(c1)OC1(CCC(c3ccccc3)CC1)CC2=O (stereo not drawn) | inactive |
| O=C1/C(=C/c2ccc(O)cc2)COc2ccccc21 | inactive |
| O=C1CC2(CCCCC2)Oc2cc(O)ccc21 | inactive |
| O=C1/C(=C/c2ccccc2)COc2ccccc21 | inactive |
